Test results from ChEMBL document CHEMBL3046741, “Initial activity and persistence of insecticides for the control of bollworms (Lepidoptera: Noctuidae) in cotton crops” (2009).

Legend:
Assay type in all cases: functional
Helicoverpa armigera [1] = experiment: Insecticidal activity against L5 larvae of Helicoverpa armigera assessed as mortality after 48 hr by leaf disk assay
Helicoverpa armigera [2] = experiment: Insecticidal activity against L2 larvae of Helicoverpa armigera assessed as mortality after 48 hr by leaf disk assay
Helicoverpa armigera [3] = experiment: Insecticidal activity against L4 larvae of Helicoverpa armigera assessed as mortality after 48 hr by leaf disk assay
Helicoverpa armigera [4] = experiment: Insecticidal activity against L1 larvae of Helicoverpa armigera assessed as mortality after 48 hr by leaf disk assay
Earias = experiment: Insecticidal activity against L3 to L4 larvae of Earias spp. assessed as mortality after 48 hr by leaf disk assay
Helicoverpa armigera [5] = experiment: Insecticidal activity against Helicoverpa armigera assessed as time above which insecticide kills less than 50% of larvae by measuring index of persistence in presence of 24 mm of simulated rain applied at three days interval
Diparopsis watersi = experiment: Insecticidal activity against L3 to L4 larvae of Diparopsis watersi assessed as mortality after 48 hr by leaf disc assay
Helicoverpa armigera [6] = experiment: Insecticidal activity against Helicoverpa armigera assessed as time above which insecticide kills less than 50% of larvae by measuring index of persistence under in absence of rain
Helicoverpa armigera [7] = experiment: Insecticidal activity against L3 larvae of Helicoverpa armigera assessed as mortality after 48 hr by leaf disk assay

Compound | mortality (Helicoverpa armigera [1]) | mortality (Helicoverpa armigera [2]) | mortality (Helicoverpa armigera [3]) | mortality (Helicoverpa armigera [4]) | mortality (Earias) | Time (Helicoverpa armigera [5]) | mortality (Diparopsis watersi) | Time (Helicoverpa armigera [6]) | mortality (Helicoverpa armigera [7])
O=S1OCC2C(CO1)C1(Cl)C(Cl)=C(Cl)C2(Cl)C1(Cl)Cl (configuration not stated) [ENDOSULFAN] | 92.5% | 91.5% | 89.5% | 93.3% | 99.4% | 5.2 days | 82.8% | 8.7 days | 94.1%
COC(=O)N(C(=O)N1CO[C@@]2(C(=O)OC)Cc3cc(Cl)ccc3C2=N1)c1ccc(OC(F)(F)F)cc1 [INDOXACARB] | 94.5% | 78.9% | 90.9% | 86.2% | 90.8% | 3.7 days | 77.7% | 8.4 days | 89.3%
CS/C(C)=N\OC(=O)N(C)SN(C)C(=O)O/N=C(\C)SC [THIODICARB] | 96.5% | 99.2% | 97.5% | 98.6% | 100% | 17.2 days | 99.3% | 27 days | 94.1%
